Source: PubChem BioAssay AID192 (DTP/NCI, 2004)
Values joined by “and” are separate entries in the source; they are usually repeats but may differ in a detail not shown here. Identical values can stand only once. Toxic doses and inconclusive results are not listed. The calls were made as follows: active = survival T/C of 150% or more; inactive = T/C below 125% in these data.

Tested on: BDF1 mice, B16 melanoma ip, median survival T/C
Experiment: NCI In Vivo Anticancer Drug Screen. Data for tumor model B16 Melanoma (intraperitoneal) in B6D2F1 (BDF1) mice
Details: endpoint: median survival time, higher = longer survival
Method: The antitumor activity of compounds was measured in mice bearing transplantable tumors. Survival or tumor size were measured and the results are expressed as the measurement made in the treated group (T) divided by the measurement made in the vehicle treated control group (C). The tumor model used in this assay is B16 Melanoma (intraperitoneal) in B6D2F1 (BDF1) mice

[1] = dose: 0.39 mg/kg/injection, schedule: Q01DX009 (ip), vehicle: Klucel (hydroxypropylcellulose) (HPC)
[2] = dose: 0.78 mg/kg/injection, schedule: Q01DX009 (ip), vehicle: Klucel (hydroxypropylcellulose) (HPC)
[3] = dose: 1.56 mg/kg/injection, schedule: Q01DX009 (ip), vehicle: Klucel (hydroxypropylcellulose) (HPC)
[4] = dose: 3.12 mg/kg/injection, schedule: Q01DX009 (ip), vehicle: Klucel (hydroxypropylcellulose) (HPC)
[5] = dose: 12.5 mg/kg/injection, schedule: Q01DX009 (ip), vehicle: saline
[6] = dose: 25.0 mg/kg/injection, schedule: Q01DX009 (ip), vehicle: saline
[7] = dose: 50.0 mg/kg/injection, schedule: Q01DX009 (ip), vehicle: saline
[8] = dose: 100.0 mg/kg/injection, schedule: Q01DX009 (ip), vehicle: saline
[9] = dose: 400.0 mg/kg/injection, schedule: Q01DX009 (ip), vehicle: saline
[10] = dose: 100.0 mg/kg/injection, schedule: Q01DX009 (ip), vehicle: saline with Tween-80
[11] = dose: 200.0 mg/kg/injection, schedule: Q01DX009 (ip), vehicle: saline with Tween-80
[12] = dose: 400.0 mg/kg/injection, schedule: Q01DX009 (ip), vehicle: saline with Tween-80
[13] = dose: 25.0 mg/kg/injection, schedule: Q01DX009 (ip), vehicle: saline with Tween-80
[14] = dose: 50.0 mg/kg/injection, schedule: Q01DX009 (ip), vehicle: saline with Tween-80
[15] = dose: 25.0 mg/kg/injection, schedule: Q01DX009 (ip), vehicle: Klucel (hydroxypropylcellulose) (HPC)
[16] = dose: 50.0 mg/kg/injection, schedule: Q01DX009 (ip), vehicle: Klucel (hydroxypropylcellulose) (HPC)
[17] = dose: 100.0 mg/kg/injection, schedule: Q01DX009 (ip), vehicle: Klucel (hydroxypropylcellulose) (HPC)
[18] = dose: 12.5 mg/kg/injection, schedule: Q01DX009 (ip), vehicle: Klucel (hydroxypropylcellulose) (HPC)
[19] = dose: 200.0 mg/kg/injection, schedule: Q01DX009 (ip), vehicle: Klucel (hydroxypropylcellulose) (HPC)
[20] = dose: 6.25 mg/kg/injection, schedule: Q01DX009 (ip), vehicle: Klucel (hydroxypropylcellulose) (HPC)

Measured: T/C

COC(=O)C1C2CC3c4[nH]c5cc(OC)ccc5c4CCN3CC2CC(OC2CCCCO2)C1OC (stereo not drawn)
inactive: dose: 0.19 mg/kg/injection, schedule: Q01DX009 (ip), vehicle: Klucel (hydroxypropylcellulose) (HPC) 112 % of control | [1] 104 % of control | [2] 103 % of control | dose: 0.78 mg/kg/injection, schedule: Q04DX003 (ip), vehicle: Klucel (hydroxypropylcellulose) (HPC) 91 % of control | [3] 101 % of control | dose: 1.56 mg/kg/injection, schedule: Q04DX003 (ip), vehicle: Klucel (hydroxypropylcellulose) (HPC) 90 % of control | [4] 111 % of control | dose: 3.12 mg/kg/injection, schedule: Q04DX003 (ip), vehicle: Klucel (hydroxypropylcellulose) (HPC) 96 % of control and 122 % of control | dose: 6.25 mg/kg/injection, schedule: Q04DX003 (ip), vehicle: Klucel (hydroxypropylcellulose) (HPC) 98 % of control | dose: 12.5 mg/kg/injection, schedule: Q04DX003 (ip), vehicle: Klucel (hydroxypropylcellulose) (HPC) 95 % of control and 111 % of control | dose: 25.0 mg/kg/injection, schedule: Q04DX003 (ip), vehicle: Klucel (hydroxypropylcellulose) (HPC) 113 % of control | dose: 50.0 mg/kg/injection, schedule: Q04DX003 (ip), vehicle: Klucel (hydroxypropylcellulose) (HPC) 111 % of control | dose: 100.0 mg/kg/injection, schedule: Q04DX003 (ip), vehicle: Klucel (hydroxypropylcellulose) (HPC) 100 % of control

CCOC(=O)c1ccc(NS(C)(=O)=O)cc1
inactive: dose: 75.0 mg/kg/injection, schedule: Q01DX009 (ip), vehicle: Klucel (hydroxypropylcellulose) (HPC) 94 % of control | dose: 150.0 mg/kg/injection, schedule: Q01DX009 (ip), vehicle: Klucel (hydroxypropylcellulose) (HPC) 102 % of control | dose: 300.0 mg/kg/injection, schedule: Q01DX009 (ip), vehicle: Klucel (hydroxypropylcellulose) (HPC) 108 % of control

OC(Cc1cnc2ccccc2n1)(C(F)(F)F)C(F)(F)F
inactive: dose: 100.0 mg/kg/injection, schedule: Q04DX003 (ip), vehicle: saline with Tween-80 105 % of control | dose: 200.0 mg/kg/injection, schedule: Q04DX003 (ip), vehicle: saline with Tween-80 105 % of control | dose: 400.0 mg/kg/injection, schedule: Q04DX003 (ip), vehicle: saline with Tween-80 102 % of control

NC(=S)c1ncn(C2OC(CO)C(O)C2O)c1N (stereo not drawn)
inactive: [5] 107 % of control | [6] 105 % of control | [7] 105 % of control | [8] 102 % of control | dose: 200.0 mg/kg/injection, schedule: Q01DX009 (ip), vehicle: saline 103 % of control | [9] 95 % of control

CCCC1OC(/C=C/c2ccccc2)OCC1CC (stereo not drawn)
inactive: [10] 110 % of control | [11] 110 % of control | [12] 98 % of control

CCOc1c(Br)cc(Br)cc1C=C(C#N)C#N
inactive: dose: 12.5 mg/kg/injection, schedule: Q01DX009 (ip), vehicle: other 103 % of control | dose: 25.0 mg/kg/injection, schedule: Q01DX009 (ip), vehicle: other 98 % of control | dose: 50.0 mg/kg/injection, schedule: Q01DX009 (ip), vehicle: other 109 % of control

Cc1cccc(N2CCN(CCC#N)CC2)c1
inactive: [13] 102 % of control | [14] 108 % of control

COc1c2c(cc3c1C(Cl)N(C)CC3)OCO2 (stereo not drawn)
inactive: [5] 96 % of control | [6] 110 % of control | [7] 106 % of control

S=C(Nc1ccccn1)Nc1ccccn1
inactive: [15] 97 % of control | [16] 104 % of control | [17] 111 % of control

COc1ccc(C(=O)c2no[n+]([O-])c2C(=O)c2ccc(OC)cc2)cc1
inactive: dose: 12.5 mg/kg/injection, schedule: Q01DX009 (ip), vehicle: saline with Tween-80 95 % of control | [13] 107 % of control | [14] 101 % of control | [10] 95 % of control | [11] 87 % of control | [12] 113 % of control

CC12C=CC(CC1)C2OC(=O)c1ccccc1C(=O)O (stereo not drawn)
inactive: [18] 108 % of control | [16] 94 % of control | [17] 100 % of control | [19] 94 % of control

CN(C)CCCN1c2ccccc2Sc2ccc(Cl)cc21
inactive: dose: 1.0 mg/kg/injection, schedule: Q01DX009 (ip), vehicle: saline 101 % of control | dose: 2.0 mg/kg/injection, schedule: Q01DX009 (ip), vehicle: saline 111 % of control and 93 % of control | dose: 4.0 mg/kg/injection, schedule: Q01DX009 (ip), vehicle: saline 110 % of control and 100 % of control | dose: 8.0 mg/kg/injection, schedule: Q01DX009 (ip), vehicle: saline 92 % of control and 102 % of control | dose: 12.5 mg/kg/injection, schedule: Q01DX009 (ip), vehicle: alkali diluted with saline 100 % of control | dose: 12.5 mg/kg/injection, schedule: Q01DX009 (ip), vehicle: saline sonified 97 % of control | dose: 16.0 mg/kg/injection, schedule: Q01DX009 (ip), vehicle: saline 94 % of control | dose: 25.0 mg/kg/injection, schedule: Q01DX009 (ip), vehicle: alkali diluted with saline 92 % of control | dose: 25.0 mg/kg/injection, schedule: Q01DX009 (ip), vehicle: saline sonified 90 % of control | dose: 32.0 mg/kg/injection, schedule: Q01DX009 (ip), vehicle: saline 92 % of control | dose: 64.0 mg/kg/injection, schedule: Q01DX009 (ip), vehicle: saline 87 % of control

CC(=O)OCc1cc(=O)n(C)c2c3c4c(cc12)c(C)cc(=O)n4CO3
inactive: [20] 122 % of control | [18] 120 % of control | [15] 121 % of control

CC(Cc1ccccc1)NC(=O)CCNNC(=O)c1ccncc1 (stereo not drawn)
inactive: [1] 95 % of control | [2] 87 % of control | [3] 90 % of control | [4] 95 % of control | [20] 89 % of control | [18] 91 % of control

Cc1nnc(NS(=O)(=O)c2ccc(N=Nc3nc4[nH]c(N)nc(=S)c4[nH]3)cc2)s1
inactive: [13] 112 % of control | [14] 100 % of control | [10] 92 % of control

CNc1ccccc1Cc1ccccc1
inactive: [16] 103 % of control | [17] 90 % of control | [19] 99 % of control

Nc1c(S(=O)(=O)O)cc(Nc2ccccc2)c2c1C(=O)c1ccccc1C2=O
inactive: [6] 121 % of control | [7] 115 % of control | [8] 115 % of control

COc1cccc2c1C(=O)c1c(O)c3c(c(O)c1C2=O)C[C@@](O)(C(C)=O)C[C@@H]3OC1CC(N2CCOCC2C#N)C(O)C(C)O1 (stereo partly drawn)
inactive: dose: 9.38 micrograms/kg/injection, schedule: Q01DX001 (ip), vehicle: distilled water + Tween-80 117 % of control | dose: 18.75 micrograms/kg/injection, schedule: Q01DX001 (ip), vehicle: water 107 % of control | dose: 75.0 micrograms/kg/injection, schedule: Q01DX001 (ip), vehicle: water 112 % of control

CN1CCN(C2=C(Cl)C(=O)c3ccccc3C2=O)CC1
inactive: dose: 1.25 mg/kg/injection, schedule: Q01DX009 (ip), vehicle: saline 95 % of control | dose: 2.5 mg/kg/injection, schedule: Q01DX009 (ip), vehicle: saline 88 % of control

CCNCc1cc(Nc2cc(C)nc(/N=C(\N)Nc3ccc(Cl)c(Cl)c3)n2)ccc1OC
inactive: [20] 100 % of control | [18] 102 % of control | [15] 91 % of control

O=C1CCCN1
inactive: [8] 100 % of control | [9] 94 % of control

NC(CC(=O)NC(=O)OCc1ccccc1)C(=O)O (stereo not drawn)
inactive: [10] 100 % of control | [11] 105 % of control | [12] 110 % of control

Nc1ccc(S(N)(=O)=O)cc1
inactive: [13] 97 % of control and 99 % of control | [14] 94 % of control and 102 % of control | [10] 91 % of control and 100 % of control | [11] 96 % of control and 102 % of control | [12] 99 % of control and 105 % of control

CS(=O)(=O)c1cnc2ccccc2n1
inactive: [13] 94 % of control | [14] 86 % of control

CC(=O)OCC1OC(OC2=C(CC=C(C)C)C(=O)c3ccccc3C2=O)C(OC(C)=O)C(OC(C)=O)C1OC(C)=O (stereo not drawn)
inactive: [20] 95 % of control and 98 % of control | [18] 87 % of control | [15] 87 % of control | [16] 88 % of control and 91 % of control | [17] 92 % of control
